The nature of this data set: Solubilizing power: test substances added to 10 g of solubilizer until the solubility limit was reached. It counts as physicochemical. An excerpt:
Example 1 corresponds to the invention, Examples C1 and C2 are intended for comparison.

Setting [1] is: in comparison solubilizer C1 (PEG-40 Hydrogenated Castor Oil 100 % by weight).
[2] abbreviates: in comparison solubilizer C2 (Cocoeth-8 100 % by weight).
Where [3] appears, read: in solubilizer of Example 1 (Cocoeth-8 40, PPG1-PEG9 Lauryl Glycol Ether 30, PEG-40 Hydrogenated Castor Oil 20, Water 10 % by weight).

The molecule Tocopherol displayed a Solubility under setting [1] of 0.40 g/10 g solubilizer, a Solubility under setting [2] of 0.50 g/10 g solubilizer and a Solubility under setting [3] of 0.90 g/10 g solubilizer.

`CCCCC(CC)COC(=O)C=Cc1ccc(OC)cc1` (stereo not drawn) [Octyl Methoxycinnamate]: the Solubility worked out at 0.45 g/10 g solubilizer under setting [1], 0.60 g/10 g solubilizer under setting [2] and 1.60 g/10 g solubilizer under setting [3].

As for `CC1CCC(C(C)C)C(O)C1` (stereo not drawn) [Menthol], the Solubility came out at 1.10 g/10 g solubilizer under setting [1], 1.05 g/10 g solubilizer under setting [2] and 4.80 g/10 g solubilizer under setting [3].

Take `COc1ccc(C(=O)c2ccccc2)c(O)c1` [Benzophenone-3]: the Solubility is, setting by setting: under setting [1], 0.40 g/10 g solubilizer; under setting [2], 0.20 g/10 g solubilizer; under setting [3], 0.44 g/10 g solubilizer.

As to `Cc1ccc(C=C2C(=O)C3(C)CCC2C3(C)C)cc1` (stereo not drawn) [4-Methylbenzylidene Camphor], the Solubility reads like this: under setting [1], 0.50 g/10 g solubilizer; under setting [2], 0.38 g/10 g solubilizer; under setting [3], 1.10 g/10 g solubilizer.

Turning to `COc1ccc(/C=C/C(=O)OCCC(C)C)cc1` [Isoamyl Methoxycinnamate], the Solubility by setting is: under setting [1], 0.60 g/10 g solubilizer; under setting [2], 0.70 g/10 g solubilizer; under setting [3], 1.10 g/10 g solubilizer.
